Data from ChEMBL document CHEMBL1687737, “Potent activity of a nucleoside reverse transcriptase inhibitor, 4'-ethynyl-2-fluoro-2'-deoxyadenosine, against human immunodeficiency virus type 1 infection in a model using human peripheral blood mononuclear cell-transplanted NOD/SCID Janus kinase 3 knockout mice” (Antimicrob Agents Chemother, 2009).
Active and inactive are the calls of the source. No cut-off for these calls is given here.

Experiments:
[1] = tested on: Mus musculus; assay: Toxicity in BALB/c mouse assessed as change in body weight at 5 mg/kg, ip bid for 14 days; type: organism-based; design: dose 5 mg/kg, route intraperitoneal; details: in vivo, 336 h
[2] = tested on: Mus musculus; assay: Toxicity in BALB/c mouse assessed as acute whole-body effect at 5 mg/kg, ip bid for 14 days; type: organism-based; design: dose 5 mg/kg, route intraperitoneal; details: in vivo, 336 h
[3] = Drug level in BALB/c mouse blood at 20 mg/kg, ip; type: ADME, organism-based; design: dose 20 mg/kg, route intraperitoneal; details: read-out: Drug uptake
[4] = tested on: Human immunodeficiency virus 1; assay: Antiviral activity against HIV1 JR-FL infected in human PBMC transplanted NOD/SCID/Janus kinase 3 knockout mouse assessed as decrease of p24 expressing human CD4+ cells in PBMC at 0.5 mg/kg, ip bid for 15 days by flow cytometry; type: functional, organism-based; design: dose 0.5 mg/kg
[5] = tested on: Human immunodeficiency virus 1; assay: Antiviral activity against HIV1 JR-FL infected in human PBMC transplanted NOD/SCID/Janus kinase 3 knockout mouse assessed as decrease of p24 expressing human CD3+ cells in spleen cells at 0.5 mg/kg, ip bid for 15 days by flow cytometry; type: functional; design: scale not given: the % may be the effect or the level left; details: route intraperitoneal
[6] = tested on: Mus musculus; assay: Toxicity in HIV1 JR-FL infected human PBMC transplanted NOD/SCID/Janus kinase 3 knockout mouse assessed as adverse effect at 0.5 mg/kg, ip bid for 15 days; type: organism-based; design: dose 0.5 mg/kg, route intraperitoneal; details: in vivo, 360 h
[7] = Tmax in BALB/c mouse at 20 mg/kg, ip; type: ADME, organism-based; design: dose 20 mg/kg, route intraperitoneal; details: in vivo
[8] = tested on: Human immunodeficiency virus 1; assay: Antiviral activity against HIV1 JR-FL infected in human PBMC transplanted NOD/SCID/Janus kinase 3 knockout mouse assessed as decrease of p24 expressing human CD4+ cells in peritoneal cavity cells at 0.5 mg/kg, ip bid for 15 days by flow cytometry; type: functional, organism-based; design: dose 0.5 mg/kg
[9] = tested on: Human immunodeficiency virus 1; assay: Antiviral activity against HIV1 JR-FL infected in human PBMC transplanted NOD/SCID/Janus kinase 3 knockout mouse assessed as increase of CD4/CD8 ratio in spleen at 0.5 mg/kg, ip bid for 15 days by flow cytometry; type: functional, organism-based; design: dose 0.5 mg/kg
[10] = tested on: Mus musculus; assay: Toxicity in BALB/c mouse assessed as subacute whole-body effect at 50 mg/kg, ip bid for 14 days; type: organism-based; design: dose 50 mg/kg, route intraperitoneal; details: in vivo, 336 h
[11] = tested on: Human immunodeficiency virus 1; assay: Antiviral activity against HIV1 JR-FL infected in human PBMC transplanted NOD/SCID/Janus kinase 3 knockout mouse assessed as increase of CD4/CD8 ratio in peritoneal cavity at 0.5 mg/kg, ip bid for 15 days by flow cytometry; type: functional, organism-based; design: dose 0.5 mg/kg
[12] = tested on: Mus musculus; assay: Toxicity in BALB/c mouse assessed as ruffled fur at 50 mg/kg, ip bid for 14 days; type: organism-based; design: dose 50 mg/kg, route intraperitoneal; details: in vivo, 336 h
[13] = tested on: Human immunodeficiency virus 1; assay: Antiviral activity against HIV1 JR-FL infected in human PBMC transplanted NOD/SCID/Janus kinase 3 knockout mouse assessed as decrease of viral p24 antigen level in plasma at 0.5 mg/kg, ip bid for 15 days by ELISA; type: functional; details: route intraperitoneal
[14] = tested on: Human immunodeficiency virus 1; assay: Antiviral activity against HIV1 JR-FL infected in human PBMC transplanted NOD/SCID/Janus kinase 3 knockout mouse assessed as decrease of viremia in plasma at 0.5 mg/kg, ip bid for 15 days by ELISA; type: functional, organism-based; design: dose 0.5 mg/kg
[15] = tested on: Mus musculus; assay: Toxicity in BALB/c mouse assessed as change in body weight at 50 mg/kg, ip bid for 14 days; type: organism-based; design: dose 50 mg/kg, route intraperitoneal; details: in vivo, 336 h
[16] = tested on: Mus musculus; assay: Toxicity in BALB/c mouse assessed as acute whole-body effect at 50 mg/kg, ip bid for 14 days; type: organism-based; design: dose 50 mg/kg, route intraperitoneal; details: in vivo, 336 h
[17] = tested on: Human immunodeficiency virus 1; assay: Antiviral activity against HIV1 JR-FL infected in human PBMC transplanted NOD/SCID/Janus kinase 3 knockout mouse assessed as increase of CD4/CD8 ratio in PBMC at 0.5 mg/kg, ip bid for 15 days by flow cytometry; type: functional; details: route intraperitoneal
[18] = tested on: Mus musculus; assay: Toxicity in BALB/c mouse assessed as subacute whole-body effect at 5 mg/kg, ip bid for 14 days; type: organism-based; design: dose 5 mg/kg, route intraperitoneal; details: in vivo, 336 h

With `C#C[C@]1(CO)O[C@@H](n2cnc3c(N)nc(F)nc32)C[C@@H]1O` [ISLATRAVIR] the Activity [1] was “Non-toxic”, the Activity [2] was “Non-toxic” and the AUC [3] was 4990 ng·h/mL. For the same compound, the Activity [4] was “Active”, the Activity [5] was 0.11% and the Activity [6] was “Non-toxic”. The Tmax [7] was 10 min, the Activity [8] was “Active” and the Activity [9] was “Active”. The Activity [10] was “Non-toxic”, the Activity [11] was “Active” and the Activity [12] was “Non-toxic”. For the same compound, the Activity [13] was 2.1 ×10² pg/ml, the Activity [14] was “Active” and the Activity [15] was “Non-toxic”. For the same compound, the Activity [16] was “Non-toxic”, the Ratio [17] was 0.65 and the Activity [18] was “Non-toxic”.
